Seven molecules from US20030119742A1, “Methods and compositions to treat cardiovascular disease using 139, 258, 1261, 1486, 2398, 2414, 7660, 8587,10183, 10550, 12680, 17921, 32248, 60489 or 93804” (Millennium Pharmaceuticals, Inc., priority 2001, published 2003) can be followed below.

Test [1] deals with 1261 mRNA. As to the kind of experiment: TaqMan analysis of 1261 mRNA in human microvascular endothelial cells (HMVEC) from the heart. The following applies: HMVEC from the heart treated with the factor. Type of test: cell-based. In general terms: In qPCR the cycle at which signal appears reflects the starting amount.
For test [2], the system named is 2398. The note with it: endothelial cells. From the text: (§1) This example describes the TaqMan™ procedure. The Taqman™ procedure is a quantitative, reverse transcription PCR-based approach for detecting mRNA. The RT-PCR reaction exploits the 5′ nuclease activity of AmpliTaq Gold™ DNA Polymerase to cleave a TaqMan™ probe during PCR. Briefly, cDNA was generated from the samples of interest, e.g., heart, kidney, liver, skeletal muscle, and various vessels, and used as the starting material for PCR amplification. In addition to the 5′ and 3′ gene-specific primers, a gene-specific oligonucleotide probe (complementary to the region being amplified) was included in the reaction (i.e., the Taqman™ probe). […]
(§2) During the PCR reaction, cleavage of the probe separates the reporter dye and the quencher dye, resulting in increased fluorescence of the reporter. Accumulation of PCR products is detected directly by monitoring the increase in fluorescence of the reporter dye. When the probe is intact, the proximity of the reporter dye to the quencher dye results in suppression of the reporter fluorescence. […]

Test [3] has as its system 2414 mRNA. As to the kind of experiment: TaqMan analysis of 2414 mRNA during cytokine stimulation of endothelial cells and monocyte/macrophages. Type of test: cell-based. The note with it: cytokine stimulation of either endothelial cells or monocyte/macrophages. The source says:
CD40L, TNFalpha, IL-1, and IFNgamma were used to stimulate either endothelial cells or monocyte/macrophages. These cytokines initiate/sustain the atherosclerotic pathogenesis
This example describes the TaqMan™ procedure.

Test [4] concerns 32248 mRNA. As to the kind of experiment: TaqMan analysis of 32248 mRNA in monkey liver model. Type of test: in vivo. From the text: As assessed by TaqMan analysis, 32248 mRNA was repressed by n-3 polyunsaturated fatty acid in monkey liver model. […] Genes that are regulated by polyunsaturated fatty acids in animal models and/or in vitro models are predicted to be responsible for the therapeutic benefit of this agent and represent new therapeutic targets for the treatment of cardiovascular disease/atherosclerosis/dyslipidemia/lipid disorders. […] Cholestyramine is used clinically for the reduction of cholesterol, a defined risk factor for atherosclerosis/coronary artery disease. Genes that are regulated by cholestyramine in animal models and/or in vitro models are predicted to be responsible for the therapeutic benefit of this agent and represent new therapeutic targets for the treatment of cardiovascular disease/atherosclerosis/dyslipidemia/lipid disorders. Fibrates are used clinically for the reduction of triglycerides and statins for the reduction of cholesterol, both well-defined risk factor for atherosclerosis/coronary artery disease. Genes that are regulated by this combination treatment in animal models and/or in vitro models are predicted to be responsible for the therapeutic benefit of these agents and represent new therapeutic targets for the treatment of cardiovascular disease/atherosclerosis/dyslipidemia/lipid disorders. 32248 was highly expressed in human liver. […]

Test [5] concerns 1486 mRNA. As to the kind of experiment: TaqMan analysis of 1486 mRNA in livers of treated marmosets. Type of test: in vivo, marmoset.
Excerpt: as §1, §2

Test [6] relates to 10183 mRNA. As to the kind of experiment: TaqMan analysis of 10183 mRNA in in vivo marmoset models. The source says:
As assessed by TaqMan analysis, 10183 mRNA is repressed by probucol and cerivastatin/fenofibrate in in vivo marmoset models. Probucol is used clinically for the treatment of atherosclerosis/coronary artery disease. Genes that are regulated by probucol in animal models and/or in vitro models are predicted to be responsible for the therapeutic benefit of this agent and represent new therapeutic targets for the treatment of cardiovascular disease/atherosclerosis/dyslipidemia/lipid disorders. Fibrates are used clinically for the reduction of triglycerides and statins for the reduction of cholesterol, both well-defined risk factor for atherosclerosis/coronary artery disease. Genes that are regulated by this combination treatment in animal models and/or in vitro models are predicted to be responsible for the therapeutic benefit of these agents and represent new therapeutic targets for the treatment of cardiovascular disease/atherosclerosis/dyslipidemia/lipid disorders. […] PPAR alpha agonists are used clinically for the reduction of triglycerides and statins for the reduction of cholesterol, both well-defined risk factor for atherosclerosis/coronary artery disease. […]

Test [7] deals with 10550 mRNA. Briefly: TaqMan analysis of 10550 mRNA in in vivo marmoset models.
Excerpt: as §1, §2

Test [8] concerns 12680 mRNA. As to the kind of experiment: TaqMan analysis of 12680 mRNA in in vivo marmoset models.
Excerpt: as §1, §2

For the molecule VEGF, the “expression of human 1261 mRNA” value in test [1] is reported as “upregulated”. In addition, the 2398 expression result in test [2] is “upregulated”. As for “IL-1beta: pro-angiogenic factor interleukin 1 beta”, the “expression of human 1261 mRNA” value in test [1] is “upregulated”. With TNF-alpha, the “expression of human 1261 mRNA” value in test [1] is “upregulated”. In test [3], the “expression of 2414 mRNA” value is recorded as “up-regulated”. With n-3 polyunsaturated fatty acid, the “32248 mRNA” value in test [4] is listed as “repressed”. With `CC(C)(Sc1cc(C(C)(C)C)c(O)c(C(C)(C)C)c1)Sc1cc(C(C)(C)C)c(O)c(C(C)(C)C)c1` [probucol], the “1486 mRNA” value in test [5] is “repressed”. The “10183 mRNA” value in test [6] was “repressed”. Besides, the “10550 mRNA” value in test [7] was “repressed”. Further, the “12680 mRNA” value in test [8] is reported as “repressed”.

B1: CD40L: cytokine used to stimulate endothelial cells or monocyte/macrophages (protein, UniProt P29965 113-261, looked up)
CD40 ligand, soluble form: MQKGDQNPQIAAHVISEASSKTTSVLQWAEKGYYTMSNNLVTLENGKQLTVKRQGLYYIYAQVTFCSNREASSQAPFIASLCLKSPGRFERILLRAANTHSSAKPCGQQSIHLGGVFELQPGASVFVNVTDPSQVSHGTGFTSFGLLKL
For the molecule B1, the “expression of 2414 mRNA” value in test [3] is “up-regulated”.

B2: IFNgamma: cytokine used to stimulate endothelial cells or monocyte/macrophages (protein, UniProt P01579 24-161, looked up)
Interferon gamma: QDPYVKEAENLKKYFNAGHSDVADNGTLFLGILKNWKEESDRKIMQSQIVSFYFKLFKNFKDDQSIQKSVETIKEDMNVKFFNSNKKKRDDFEKLTNYSVTDLNVQRKAIHELIQVMAELSPAAKTGKRKRSQMLFRG
In the case of B2, in test [3], the “expression of 2414 mRNA” value is “up-regulated”.
